Patent US7875621B2, “Substituted 2-alkyl quinazolinone derivatives as PARP inhibitors” (Janssen Pharmaceutica NV, priority 2004, dated 2011)
Each block holds one compound with its values, some of them ahead of it.

Key:
[1] = tested on: infarct size in the heart; conditions: rabbits, cited from earlier work
colitis = conditions: rats, colitis by intraluminal trinitrobenzene sulfonic acid in 50% ethanol; cited from earlier work
TANK-2 enzyme = molecular target: T1, TANK-2 enzyme (Homo sapiens, UniProt Q9H2K2); test: In vitro scintillation proximity assay (SPA) for TANK-2 inhibitory activity; assay type: biochemical; conditions: auto-poly(ADP-ribosyl)ation, [3H]-NAD+, 96- or 384-well Ni Flash plates; read-out: in vitro SPA TANK-2 pIC50 (converted)
T1 construct: inferred from capture on Ni-coated flash plate; made in house
T1 sequence (Q9H2K2 1-1166): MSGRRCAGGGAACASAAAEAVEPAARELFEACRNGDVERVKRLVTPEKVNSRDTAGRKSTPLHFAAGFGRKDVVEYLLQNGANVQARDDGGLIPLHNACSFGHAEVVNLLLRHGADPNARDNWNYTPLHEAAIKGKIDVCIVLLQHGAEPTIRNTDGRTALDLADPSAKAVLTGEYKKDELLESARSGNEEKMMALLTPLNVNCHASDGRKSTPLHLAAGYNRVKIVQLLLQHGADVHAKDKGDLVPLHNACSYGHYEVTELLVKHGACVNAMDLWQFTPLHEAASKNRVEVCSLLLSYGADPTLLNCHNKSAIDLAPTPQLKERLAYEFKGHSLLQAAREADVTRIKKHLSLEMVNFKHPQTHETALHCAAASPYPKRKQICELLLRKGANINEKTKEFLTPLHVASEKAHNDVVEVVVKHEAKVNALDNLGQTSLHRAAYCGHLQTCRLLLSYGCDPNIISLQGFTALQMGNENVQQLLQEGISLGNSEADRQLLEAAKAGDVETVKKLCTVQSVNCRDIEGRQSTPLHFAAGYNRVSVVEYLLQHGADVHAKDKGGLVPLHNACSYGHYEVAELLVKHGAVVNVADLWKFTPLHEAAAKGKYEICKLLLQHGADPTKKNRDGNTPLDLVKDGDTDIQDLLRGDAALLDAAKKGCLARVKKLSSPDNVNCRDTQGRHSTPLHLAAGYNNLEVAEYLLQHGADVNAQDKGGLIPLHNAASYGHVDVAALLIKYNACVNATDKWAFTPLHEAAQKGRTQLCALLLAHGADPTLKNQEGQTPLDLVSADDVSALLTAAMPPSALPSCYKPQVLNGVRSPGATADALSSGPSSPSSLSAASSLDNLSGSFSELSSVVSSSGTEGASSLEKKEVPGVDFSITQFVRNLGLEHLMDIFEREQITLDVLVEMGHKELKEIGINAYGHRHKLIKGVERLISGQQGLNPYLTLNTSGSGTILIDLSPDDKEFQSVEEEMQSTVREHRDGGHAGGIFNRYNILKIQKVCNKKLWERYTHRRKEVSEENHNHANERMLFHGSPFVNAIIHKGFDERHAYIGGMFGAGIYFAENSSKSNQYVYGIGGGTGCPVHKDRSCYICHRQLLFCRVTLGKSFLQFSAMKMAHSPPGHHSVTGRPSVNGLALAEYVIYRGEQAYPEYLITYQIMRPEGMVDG
Method: In Vitro Scintillation Proximity Assay (SPA) for TANK-2 Inhibitory Activity
Compounds of the present invention were tested in an in vitro assay based on SPA technology with Ni Flash plates (96 or 384 well).
In principle, the assay relies upon SPA technology for the detection of auto-poly(ADP-ribosyl)ation of TANK-2 protein using [^3H]-nicotinamide adenine dinucleotide ([^3H]-NAD^+) as ADP-ribosyl donor.
A stock solution of [^3H]-NAD^+/NAD was made by adding 64.6 μl of [^3H]-NAD^+ (0.1 mCi/ml, supplier: Perkin Elmer) and 46.7 μl NAD-stock (10.7 mM, stored at −20° C., supplier Roche) to 1888.7 μl assay buffer (60 mM Tris/HCl, pH 7.4; 0.9 mM DTT; 6 mM MgCl2). The TANK-2 enzyme was produced as described in EP1238063. 60 μl of assay buffer, together with 1 μl of compound in DMSO, 20 μl of [^3H]-NAD^+/NAD and 20 μl of TANK-2 enzyme (final concentration 6 μg/ml) was added per well into a 96-well Ni-coated flash plate (Perkin Elmer). After incubation of the mixture for 120 min. at room temperature, the reaction was terminated by adding 60 μl of stopsolution (42.6 mg NAD in 6 ml H2O). The plates were covered with a plate sealer and placed in a TopCountNXT™ (Packard) for scintillation counting. Values were expressed as counts per minute (cpm). For each experiment, controls (containing TANK-2 enzyme and DMSO without compound), a blank incubation (containing DMSO but no TANK-2 enzyme or compound) and samples (containing TANK-2 enzyme and compound dissolved in DMSO) were run in parallel. All compounds tested were dissolved and eventually further diluted in DMSO. In first instance, compounds were tested at a concentration of 10^−5M. […] In each test, the blank value was subtracted from both the control and the sample values. The control sample represented maximal TANK-2 enzyme activity. For each sample, the amount of cpm was expressed as a percentage of the mean cpm value of the controls. When appropriate, IC50-values (concentration of the drug, needed to reduce the TANK-2 enzyme activity to 50% of the control) were computed using linear interpolation between the experimental points just above and below the 50% level. Herein the effects of test compounds are expressed as pIC50 (the negative log value of the IC50-value). As reference compounds, 3-aminobenzamide and 4-amino-1,8-naphtalimide were included to validate the SPA assay. Herein the assay was described using 96-well plates. In the assay using 384-well plates the same final concentrations were used and volumes were adapted.

Compound: Oc1cccc2c(O)nccc12 [1,5-dihydroxyisoquinoline]
reduction in infarct size ([1]; single injection 1 mg/kg): 38-48%

Compound: NC(=O)c1cccc(N)c1 [3-amino-benzamide]
effect on inflammatory response and distal colon (colitis): reduced the inflammatory response
reduction in infarct size in the heart ([1]; single injection 10 mg/kg, one minute before occlusion or before reperfusion): 32-42%

IC50 (TANK-2 enzyme): > 10 µM
Compound: O=C1NC(CCN2CCC(C(=O)c3ccc(F)cc3)CC2)Nc2ccccc21 (stereo not shown) [Compound 1]
